According to patent publication US8604217B2, “Compound, a process for its preparation, a pharmaceutical composition, use of a compound, a method for modulating or regulating serine/threonine kinases and a serine/threonine kinases modulating agent” (Selvita S.A., priority 2009, dated 2013):

Columns and labels:
Type in all cases: cell-based
[1] = test system: human prostate adenocarcinoma PC3 cells; assay: Growth inhibition test (MTS) on PC3 cells; conditions: Homo sapiens, PC-3, 72 hours, read-out: PC-3 ED50
[2] = test system: human colorectal adenocarcinoma SW480 cells; assay: Growth inhibition test (MTS) on SW480 cells; conditions: Homo sapiens, SW480, 72 hours, read-out: SW480 ED50
Experimental: (§1) Two thousand cells of human colorectal adenocarcinoma SW480 were inoculated into each well of a 96-well microplate (manufactured by Corning Corp.), and using DMEM/Ham's F121:1 medium (culture medium) containing 5% fetal calf serum (FCS). Next day, a dimethyl sulfoxide (DMSO) solution of each test compound prepared in a concentration of 10 mmol/L was further diluted with culture medium to the desired concentrations (0.1, 0.5, 1, 2.5, 5 and 10 micromol/L), and the diluted solution was added to each well. The individual wells were further cultured in 5% carbon dioxide at 37° C. for 72 hours. After completion of the culture, 10 μl MTS (3-(4,5-Dimethyl-2-thiazolyl)-5-(carboxymethoxyphenyl)-2-(4-sulfophenyl)-2H-tetrazolium, inner salt assay (CellTiter96® AQueous One Solution Cell Proliferation Assay, Promega) was added to each well, and culturing was performed in 5% carbon dioxide at 37° C. for 2 hours. Using a microplate spectrophotometer (Synergy 2 multi-mode microplate reader (BioTek)), the absorbance of each well was measured at 490 nm. The value for cells not incorporated with a test compound was designated as 100%. By comparing these values with the absorbance difference obtained at the well in which each test compound was added, the cell viability (% viability) after treatment with the test compound was calculated.

[3] = test system: human myelomonocytic, biphenotypic leukemia MV4-11 cells; assay: Growth inhibition test (MTS) on MV4-11 cells; conditions: Homo sapiens, MV4-11, 72 hours, read-out: MV-4-11 ED50
Procedure, shortened: MV4-

[4] = test system: human chronic myelocytic leukemia K562 cells; assay: Growth inhibition test (MTS) on K562 cells; conditions: Homo sapiens, K562, 72 hours, read-out: K562 ED50
Experimental: as §1, with “Ten thousand” for “Two thousand”, “human chronic myelocytic leukemia K562” for “human colorectal adenocarcinoma SW480”, “Corning Corp.)” for “Corning Corp.), and”, “using Iscove's MDM” for “using DMEM/Ham's F121:1”, “containing 10%” for “containing 5%”

[5] = test system: human hepatoma HepG2 cells; assay: Growth inhibition test (MTS) on HepG2 cells; conditions: 72 hours, read-out: HepG2 ED50
Procedure, shortened: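 HepG2 cells in DMEM with 10% FCS were exposed for 72 h at 37 °C, 5% CO2, to 0.1, 0.5, 1, 2.5, 5 and 10 micromol/L compound. MTS was then added for 2 h and absorbance read at 490 nm. % viability was calculated relative to untreated cells set at 100%.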

Row | Structure (SMILES) | IC50 [1] | IC50 [2] | IC50 [3] | IC50 [4] | IC50 [5]
1 | NCCCNc1nc2c(Br)c(Br)c(Br)c(Br)c2[nH]1 [Compound 11, N-(3-aminopropyl)-4,5,6,7-tetrabromo-1H-benzo[d]imidazol-2-amine] | 4900 nM | 2470 nM | 1030 nM | 7470 nM | 2840 nM
2 | Brc1c(Br)c(Br)c2[nH]c(N3CCNCC3)nc2c1Br [Compound 20, 4,5,6,7-tetrabromo-2-(piperazin-1-yl)-1H-benzo[d]imidazole] | 5140 nM | 3450 nM | 480 nM | 6460 nM | 2860 nM
3 | NC1CCC(Nc2nc3c(Br)c(Br)c(Br)c(Br)c3[nH]2)CC1 (centres unmarked) [Compound 87, N1-(4,5,6,7-tetrabromo-1H-benzo[d]imidazol-2-yl)cyclohexane-1,4-diamine] | 5650 nM | 2030 nM | 4200 nM | 5590 nM | 3800 nM
4 | NC1CCCC(Nc2nc3c(Br)c(Br)c(Br)c(Br)c3[nH]2)C1 (centres unmarked) [Compound 336, N1-(4,5,6,7-tetrabromo-1H-benzo[d]imidazol-2-yl)cyclohexane-1,3-diamine] | 8400 nM | 4150 nM | 2600 nM | 6880 nM | 4870 nM
5 | Brc1c(Br)c(Br)c2[nH]c(N[C@H]3COC[C@@H]3N3CCCC3)nc2c1Br [Compound 337, 4,5,6,7-tetrabromo-N-((3R,4R)-tetrahydro-4-(pyrrolidin-1-yl)furan-3-yl)-1H-benzo[d]imidazol-2-amine] | 3830 nM | 1610 nM | 2450 nM | 3020 nM | 2400 nM
6 | Brc1c(Br)c(Br)c2[nH]c(N[C@H]3COC[C@@H]3N3CCCCC3)nc2c1Br [Compound 338, 4,5,6,7-tetrabromo-N-((3R,4R)-tetrahydro-4-(piperidin-1-yl)furan-3-yl)-1H-benzo[d]imidazol-2-amine] | 4760 nM | 1950 nM | 3300 nM | 5030 nM | 2760 nM
7 | NCc1ccccc1CNc1nc2c(Br)c(Br)c(Br)c(Br)c2[nH]1 [Compound 349, N-(2-(aminomethyl)benzyl)-4,5,6,7-tetrabromo-1H-benzo[d]imidazol-2-amine] | 4700 nM | 1610 nM | 1580 nM | 6510 nM | 2510 nM
8 | CN1CCCC(Nc2nc3c(Br)c(Br)c(Br)c(Br)c3[nH]2)CC1 (centres unmarked) [Compound 358, 4,5,6,7-tetrabromo-N-(1-methylazepan-4-yl)-1H-benzo[d]imidazol-2-amine] | 6200 nM | 2420 nM | 1000 nM | 6640 nM | 2650 nM
9 | CC(C)n1c(N2CCNCC2)nc2c(Br)c(Br)c(Br)c(Br)c21 [Compound 359, 4,5,6,7-tetrabromo-1-isopropyl-2-(piperazin-1-yl)-1H-benzo[d]imidazole] | 2950 nM | 1600 nM | 600 nM | 3050 nM | 1850 nM
10 | C[C@@H]1CN(c2nc3c(Br)c(Br)c(Br)c(Br)c3[nH]2)[C@@H](C)CN1 [Compound 364, 4,5,6,7-tetrabromo-2-((2S,5R)-2,5-dimethylpiperazin-1-yl)-1H-benzo[d]imidazole] | 4580 nM | 1270 nM | 1970 nM | 5210 nM | 2330 nM
11 | Brc1c(Br)c(Br)c2[nH]c(NC3CCCNCC3)nc2c1Br (centres unmarked) [Compound 366, N-(azepan-4-yl)-4,5,6,7-tetrabromo-1H-benzo[d]imidazol-2-amine] | 5600 nM | 2840 nM | 600 nM | 5040 nM | 1700 nM
12 | CC(C)NC1CCCCC1Nc1nc2c(Br)c(Br)c(Br)c(Br)c2[nH]1 (centres unmarked) [Compound 369, N1-(4,5,6,7-tetrabromo-1H-benzo[d]imidazol-2-yl)-N2-isopropylcyclohexane-1,2-diamine] | 2450 nM | 550 nM | 1300 nM | 3530 nM | 1400 nM
13 | Brc1c(Br)c(Br)c2c(nc(N3CCNCC3)n2Cc2ccccc2)c1Br [Compound 374, 1-benzyl-4,5,6,7-tetrabromo-2-(piperazin-1-yl)-1H-benzo[d]imidazole] | 2500 nM | 1440 nM | 1300 nM | 2940 nM | 1330 nM
14 | CN(C)C1CCCN(c2nc3c(Br)c(Br)c(Br)c(Br)c3[nH]2)C1 (centres unmarked) [Compound 378, 1-(4,5,6,7-tetrabromo-1H-benzo[d]imidazol-2-yl)-N,N-dimethylpiperidin-3-amine] | 6660 nM | 5000 nM | 6150 nM |  | 4200 nM
15 | Brc1c(Br)c(Br)c2[nH]c(N3CCC(C4CCNCC4)CC3)nc2c1Br [Compound 386, 4,5,6,7-tetrabromo-2-(4-(piperidin-4-yl)piperidin-1-yl)-1H-benzo[d]imidazole] | 2770 nM | 1770 nM | 3310 nM | 2860 nM | 
16 | CCCCCNC1CCCCC1Nc1nc2c(Br)c(Br)c(Br)c(Br)c2[nH]1 (centres unmarked) [Compound 413, N1-(4,5,6,7-tetrabromo-1H-benzo[d]imidazol-2-yl)-N2-pentylcyclohexane-1,2-diamine] | 1450 nM | 580 nM | 1550 nM | 2730 nM | 1360 nM
17 | CCn1c(N2CCNCC2)nc2c(Br)c(Br)c(Br)c(Br)c21 [Compound 416, 4,5,6,7-tetrabromo-1-ethyl-2-(piperazin-1-yl)-1H-benzo[d]imidazole] | 2100 nM | 1250 nM | 550 nM | 3650 nM | 1310 nM
18 | CCCn1c(N2CCNCC2)nc2c(Br)c(Br)c(Br)c(Br)c21 [Compound 417, 4,5,6,7-tetrabromo-2-(piperazin-1-yl)-1-propyl-1H-benzo[d]imidazole] | 2570 nM | 2560 nM | 560 nM | 4960 nM | 1850 nM
19 | Brc1c(Br)c(Br)c2[nH]c(NC3CCNCC3)nc2c1Br [Compound 435, 4,5,6,7-tetrabromo-N-(piperidin-4-yl)-1H-benzo[d]imidazol-2-amine] | 5790 nM | 1270 nM | 680 nM | 5640 nM | 
20 | CCn1c(N2CCN(CCN3CCNCC3)CC2)nc2c(Br)c(Br)c(Br)c(Br)c21 [Compound 441, 4,5,6,7-tetrabromo-1-ethyl-2-(4-(2-(piperazin-1-yl)ethyl)piperazin-1-yl)-1H-benzo[d]imidazole] | 1600 nM | 700 nM | 700 nM | 1650 nM | 700 nM
21 | CCn1c(N2CCN(CCCN3CCOCC3)CC2)nc2c(Br)c(Br)c(Br)c(Br)c21 [Compound 450] | 3600 nM | 1000 nM | 600 nM | 2900 nM | 1500 nM
22 | Brc1c(Br)c(Br)c2c(Br)n[nH]c2c1Br [Compound K64, 3,4,5,6,7-pentabromo-1H-indazole, reference compound] | > 10000 nM | 9130 nM | > 10000 nM | > 10000 nM | > 10000 nM
23 | CN(C)c1nc2c(Br)c(Br)c(Br)c(Br)c2n1CC(=O)O [Compound K66, 1-carboxymethyl-2-dimethylamino-4,5,6,7-tetrabromo-benzimidazole, reference compound] | > 10000 nM | > 10000 nM | > 10000 nM | > 10000 nM | > 10000 nM
24 | CN(C)c1nc2c(Br)c(Br)c(Br)c(Br)c2[nH]1 [DMAT, 2-dimethylamino-4,5,6,7-tetrabromo-1H-benzimidazole, reference compound] | > 10000 nM | > 10000 nM | 3150 nM | > 10000 nM | > 10000 nM
25 | Brc1c(Br)c(Br)c2[nH]nnc2c1Br [TBB, 4,5,6,7-tetrabromo-1Hbenzotriazole, reference compound] | > 10000 nM | > 10000 nM | > 10000 nM | > 10000 nM | > 10000 nM
